Source: patent publication US6358885B1, “Substituted phenylheterocyclic herbicides” (Mississippi State University, priority 1992, dated 2002)

Tests used:
Assay in all cases: Test B preemergence/postemergence greenhouse plant response rating 0 to 10
lambsquarters = assay type: in vivo, Chenopodium album; details: for Plant response rating, Lambsquarter: 0 to 10 scale
Procedure, shortened: (§1)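 Test chemicals, dissolved in a non-phytotoxic solvent, were applied to soil at planting and, at the same time, over foliage of seedlings at the one to four leaf stage.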

cheatgrass = assay type: in vivo, Bromus secalinus; details: for Plant response rating, Cheatgrass: 0 to 10 scale
Procedure, shortened: as §1

sorghum = assay type: in vivo, Sorghum bicolor; details: for Plant response rating, Sorghum: 0 to 10 scale
Procedure, shortened: as §1

barley = assay type: in vivo, Hordeum vulgare; details: for Plant response rating, Barley: 0 to 10 scale
Procedure, shortened: as §1

rice = assay type: in vivo, Oryza sativa; details: for Plant response rating, Rice: 0 to 10 scale
Procedure, shortened: as §1

sugar beet = assay type: in vivo, Beta vulgaris; details: for Plant response rating, Sugar beet: 0 to 10 scale
Procedure, shortened: as §1

crabgrass = assay type: in vivo, Digitaria spp.; details: for Plant response rating, Crabgrass: 0 to 10 scale
Procedure, shortened: as §1

giant foxtail = assay type: in vivo, Setaria faberii; details: for Plant response rating, Giant foxtail: 0 to 10 scale
Procedure, shortened: as §1

bedstraw = assay type: in vivo, Galium aparine; details: for Plant response rating, Bedstraw: 0 to 10 scale
Procedure, shortened: as §1

blackgrass = assay type: in vivo, Alopecurus myosuroides; details: for Plant response rating, Blackgrass: 0 to 10 scale
Procedure, shortened: as §1

barnyardgrass = assay type: in vivo, Echinochloa crus-galli; details: for Plant response rating, Barnyardgrass: 0 to 10 scale
Procedure, shortened: as §1

chickweed = assay type: in vivo, Stellaria media; details: for Plant response rating, Chickweed: 0 to 10 scale
Procedure, shortened: as §1

corn = assay type: in vivo, Zea mays; details: for Plant response rating, Corn: 0 to 10 scale
Procedure, shortened: as §1

wild buckwheat = assay type: in vivo, Polygonum convolvulus; details: for Plant response rating, Wild buckwheat: 0 to 10 scale
Procedure, shortened: as §1

cotton = assay type: in vivo, Gossypium hirsutum; details: for Plant response rating, Cotton: 0 to 10 scale
Procedure, shortened: as §1

wheat = assay type: in vivo, Triticum aestivum; details: for Plant response rating, Wheat: 0 to 10 scale
Procedure, shortened: as §1

velvetleaf = assay type: in vivo, Abutilon theophrasti; details: for Plant response rating, Velvetleaf: 0 to 10 scale
Procedure, shortened: as §1

morningglory = assay type: in vivo, Ipomoea hederacea; details: for Plant response rating, Morningglory: 0 to 10 scale
Procedure, shortened: as §1

soybean = assay type: in vivo, Glycine max; details: for Plant response rating, Soybean: 0 to 10 scale
Procedure, shortened: as §1

wild oat = assay type: in vivo, Avena fatua; details: for Plant response rating, Wild oat: 0 to 10 scale
Procedure, shortened: as §1

rape = assay type: in vivo, Brassica napus; details: for Plant response rating, Rape: 0 to 10 scale
Procedure, shortened: as §1

cocklebur = assay type: in vivo, Xanthium pensylvanicum; details: for Plant response rating, Cocklebur: 0 to 10 scale
Procedure, shortened: as §1

purple nutsedge = assay type: in vivo, Cyperus rotundus; details: for Plant response rating, Nutsedge: 0 to 10 scale
Procedure, shortened: as §1

SMILES: CC(C)OC(=O)COc1cc(-c2nn3c(c2Br)CCCC3)c(F)cc1Cl [Compound 64]
- Plant response rating, Lambsquarter (lambsquarters; POSTEMERGENCE, Rate 50 g/ha): 9
- Plant response rating, Lambsquarter (lambsquarters; PREEMERGENCE, Rate 50 g/ha): 10
- Plant response rating (0 to 10 scale), Lambsquarter (lambsquarters; PREEMERGENCE, Rate 200 g/ha): 10
- Plant response rating, Lambsquarter (lambsquarters; Rate 200 g/ha, POSTEMERGENCE): 10
- Plant response rating, Cheatgrass (cheatgrass; POSTEMERGENCE, Rate 50 g/ha): 2
- Plant response rating, Cheatgrass (cheatgrass; PREEMERGENCE, Rate 50 g/ha): 2
- Plant response rating (0 to 10 scale), Cheatgrass (cheatgrass; PREEMERGENCE, Rate 200 g/ha): 2
- Plant response rating, Cheatgrass (cheatgrass; Rate 200 g/ha, POSTEMERGENCE): 3
- Plant response rating, Sorghum (sorghum; POSTEMERGENCE, Rate 50 g/ha): 4
- Plant response rating, Sorghum (sorghum; PREEMERGENCE, Rate 50 g/ha): 0
- Plant response rating (0 to 10 scale), Sorghum (sorghum; PREEMERGENCE, Rate 200 g/ha): 0
- Plant response rating, Sorghum (sorghum; Rate 200 g/ha, POSTEMERGENCE): 4
- Plant response rating, Barley (barley; POSTEMERGENCE, Rate 50 g/ha): 2
- Plant response rating, Barley (barley; PREEMERGENCE, Rate 50 g/ha): 0
- Plant response rating (0 to 10 scale), Barley (barley; PREEMERGENCE, Rate 200 g/ha): 0
- Plant response rating, Barley (barley; Rate 200 g/ha, POSTEMERGENCE): 3
- Plant response rating, Rice (rice; POSTEMERGENCE, Rate 50 g/ha): 4
- Plant response rating, Rice (rice; PREEMERGENCE, Rate 50 g/ha): 0
- Plant response rating (0 to 10 scale), Rice (rice; PREEMERGENCE, Rate 200 g/ha): 2
- Plant response rating, Rice (rice; Rate 200 g/ha, POSTEMERGENCE): 5
- Plant response rating, Sugar beet (sugar beet; POSTEMERGENCE, Rate 50 g/ha): 10
- Plant response rating, Sugar beet (sugar beet; PREEMERGENCE, Rate 50 g/ha): 9
- Plant response rating (0 to 10 scale), Sugar beet (sugar beet; PREEMERGENCE, Rate 200 g/ha): 10
- Plant response rating, Sugar beet (sugar beet; Rate 200 g/ha, POSTEMERGENCE): 10
- Plant response rating, Crabgrass (crabgrass; POSTEMERGENCE, Rate 50 g/ha): 3
- Plant response rating, Crabgrass (crabgrass; PREEMERGENCE, Rate 50 g/ha): 0
- Plant response rating (0 to 10 scale), Crabgrass (crabgrass; PREEMERGENCE, Rate 200 g/ha): 0
- Plant response rating, Crabgrass (crabgrass; Rate 200 g/ha, POSTEMERGENCE): 5
- Plant response rating, Giant foxtail (giant foxtail; POSTEMERGENCE, Rate 50 g/ha): 3
- Plant response rating, Giant foxtail (giant foxtail; PREEMERGENCE, Rate 50 g/ha): 0
- Plant response rating (0 to 10 scale), Giant foxtail (giant foxtail; PREEMERGENCE, Rate 200 g/ha): 0
- Plant response rating, Giant foxtail (giant foxtail; Rate 200 g/ha, POSTEMERGENCE): 3
- Plant response rating, Bedstraw (bedstraw; POSTEMERGENCE, Rate 50 g/ha): 10
- Plant response rating, Bedstraw (bedstraw; PREEMERGENCE, Rate 50 g/ha): 0
- Plant response rating (0 to 10 scale), Bedstraw (bedstraw; PREEMERGENCE, Rate 200 g/ha): 1
- Plant response rating, Bedstraw (bedstraw; Rate 200 g/ha, POSTEMERGENCE): 10
- Plant response rating, Blackgrass (blackgrass; POSTEMERGENCE, Rate 50 g/ha): 2
- Plant response rating, Blackgrass (blackgrass; PREEMERGENCE, Rate 50 g/ha): 1
- Plant response rating (0 to 10 scale), Blackgrass (blackgrass; PREEMERGENCE, Rate 200 g/ha): 2
- Plant response rating, Blackgrass (blackgrass; Rate 200 g/ha, POSTEMERGENCE): 3
- Plant response rating, Barnyardgrass (barnyardgrass; POSTEMERGENCE, Rate 50 g/ha): 5
- Plant response rating, Barnyardgrass (barnyardgrass; PREEMERGENCE, Rate 50 g/ha): 0
- Plant response rating (0 to 10 scale), Barnyardgrass (barnyardgrass; PREEMERGENCE, Rate 200 g/ha): 1
- Plant response rating, Barnyardgrass (barnyardgrass; Rate 200 g/ha, POSTEMERGENCE): 7
- Plant response rating, Chickweed (chickweed; POSTEMERGENCE, Rate 50 g/ha): 2
- Plant response rating, Chickweed (chickweed; PREEMERGENCE, Rate 50 g/ha): 0
- Plant response rating (0 to 10 scale), Chickweed (chickweed; PREEMERGENCE, Rate 200 g/ha): 0
- Plant response rating, Chickweed (chickweed; Rate 200 g/ha, POSTEMERGENCE): 5
- Plant response rating, Corn (corn; POSTEMERGENCE, Rate 50 g/ha): 5
- Plant response rating, Corn (corn; PREEMERGENCE, Rate 50 g/ha): 0
- Plant response rating (0 to 10 scale), Corn (corn; PREEMERGENCE, Rate 200 g/ha): 0
- Plant response rating, Corn (corn; Rate 200 g/ha, POSTEMERGENCE): 3
- Plant response rating, Wild buckwheat (wild buckwheat; POSTEMERGENCE, Rate 50 g/ha): 10
- Plant response rating, Wild buckwheat (wild buckwheat; PREEMERGENCE, Rate 50 g/ha): 5
- Plant response rating (0 to 10 scale), Wild buckwheat (wild buckwheat; PREEMERGENCE, Rate 200 g/ha): 10
- Plant response rating, Wild buckwheat (wild buckwheat; Rate 200 g/ha, POSTEMERGENCE): 10
- Plant response rating, Cotton (cotton; POSTEMERGENCE, Rate 50 g/ha): 10
- Plant response rating, Cotton (cotton; PREEMERGENCE, Rate 50 g/ha): 0
- Plant response rating (0 to 10 scale), Cotton (cotton; PREEMERGENCE, Rate 200 g/ha): 0
- Plant response rating, Cotton (cotton; Rate 200 g/ha, POSTEMERGENCE): 10
- Plant response rating, Wheat (wheat; POSTEMERGENCE, Rate 50 g/ha): 3
- Plant response rating, Wheat (wheat; PREEMERGENCE, Rate 50 g/ha): 0
- Plant response rating (0 to 10 scale), Wheat (wheat; PREEMERGENCE, Rate 200 g/ha): 0
- Plant response rating, Wheat (wheat; Rate 200 g/ha, POSTEMERGENCE): 2
- Plant response rating, Velvetleaf (velvetleaf; POSTEMERGENCE, Rate 50 g/ha): 10
- Plant response rating, Velvetleaf (velvetleaf; PREEMERGENCE, Rate 50 g/ha): 3
- Plant response rating (0 to 10 scale), Velvetleaf (velvetleaf; PREEMERGENCE, Rate 200 g/ha): 6
- Plant response rating, Velvetleaf (velvetleaf; Rate 200 g/ha, POSTEMERGENCE): 10
- Plant response rating, Morningglory (morningglory; POSTEMERGENCE, Rate 50 g/ha): 9
- Plant response rating, Morningglory (morningglory; PREEMERGENCE, Rate 50 g/ha): 0
- Plant response rating (0 to 10 scale), Morningglory (morningglory; PREEMERGENCE, Rate 200 g/ha): 8
- Plant response rating, Morningglory (morningglory; Rate 200 g/ha, POSTEMERGENCE): 10
- Plant response rating, Soybean (soybean; POSTEMERGENCE, Rate 50 g/ha): 6
- Plant response rating, Soybean (soybean; PREEMERGENCE, Rate 50 g/ha): 0
- Plant response rating (0 to 10 scale), Soybean (soybean; PREEMERGENCE, Rate 200 g/ha): 0
- Plant response rating, Soybean (soybean; Rate 200 g/ha, POSTEMERGENCE): 5
- Plant response rating, Wild oat (wild oat; POSTEMERGENCE, Rate 50 g/ha): 3
- Plant response rating, Wild oat (wild oat; PREEMERGENCE, Rate 50 g/ha): 0
- Plant response rating (0 to 10 scale), Wild oat (wild oat; PREEMERGENCE, Rate 200 g/ha): 0
- Plant response rating, Wild oat (wild oat; Rate 200 g/ha, POSTEMERGENCE): 3
- Plant response rating, Rape (rape; POSTEMERGENCE, Rate 50 g/ha): 7
- Plant response rating, Rape (rape; PREEMERGENCE, Rate 50 g/ha): 0
- Plant response rating (0 to 10 scale), Rape (rape; PREEMERGENCE, Rate 200 g/ha): 0
- Plant response rating, Rape (rape; Rate 200 g/ha, POSTEMERGENCE): 10
- Plant response rating, Cocklebur (cocklebur; POSTEMERGENCE, Rate 50 g/ha): 10
- Plant response rating, Cocklebur (cocklebur; PREEMERGENCE, Rate 50 g/ha): 0
- Plant response rating (0 to 10 scale), Cocklebur (cocklebur; PREEMERGENCE, Rate 200 g/ha): 2
- Plant response rating, Cocklebur (cocklebur; Rate 200 g/ha, POSTEMERGENCE): 10
- Plant response rating, Nutsedge (purple nutsedge; POSTEMERGENCE, Rate 50 g/ha): 2
- Plant response rating, Nutsedge (purple nutsedge; PREEMERGENCE, Rate 50 g/ha): 0
- Plant response rating (0 to 10 scale), Nutsedge (purple nutsedge; PREEMERGENCE, Rate 200 g/ha): 0
- Plant response rating, Nutsedge (purple nutsedge; Rate 200 g/ha, POSTEMERGENCE): 2
